# Results published in US10975101B2, “Ultra-potent vinca alkaloids: added molecular complexity further disrupts the tublin dimer-dimer interface” (priority 2016, dated 2021).
# Like-named read-outs stand apart in the source and are kept apart here.
# Assays:
# [1] = test system: L1210 (mouse lymphocytic leukemia) cells; test: Cell growth inhibition assay, L1210; assay type: cell-based; details: 72 hours incubation, phosphatase assay
# Experimental: (§1) Compounds were tested for their cell growth inhibition of L1210 (ATCC no. CCL-219, mouse lymphocytic leukemia) cells, HCT116 (ATCC no. CCL-247, human colorectal carcinoma) cells, and HCT116/VM46 (a vinblastine-resistant strain of HCT116) cells in culture. A population of cells (>1×10^6 cells/mL as determined with a hemocytometer) was diluted with an appropriate amount of Dulbecco's Modified Eagle Medium (DMEM, Gibco) containing 10% fetal bovine serum (FBS, Gibco) to a final concentration of 30000 cells/mL.
# (§2) To each well of a 96-well plate (Corning Costar), 100 μL of the cell media solution was added with a multichannel pipet. The cultures were incubated at 37° C. in an atmosphere of 5% CO2 and 95% humidified air for 24 hours. The test compounds were added to the plate as follows: test substances were diluted in DMSO to a concentration of 1 mM and 10-fold serial dilutions were performed on a separate 96-well plate. Fresh culture medium (100 μL) was added to each well of cells to constitute 200 μL of medium per well followed by 2 μL of each test agent. Compounds were tested in duplicate (n=2-18 times) at six concentrations between 0-1000 nM or 0-10000 nM. Following addition, cultures were incubated for an additional 72 hours.
# (§3) A phosphatase assay was used to establish the IC50 values as follows: the media in each cell was removed and 100 μL of phosphatase solution (100 mg phosphatase substrate in 30 mL of 0.1 M NaOAc, pH 5.5, 0.1% Triton X-100 buffer) was added to each well. The plates were incubated at 37° C. for either 5 minutes (L1210) or 15 minutes (HCT116 and HCT116/VM46). After the given incubation time, 50 μL of 0.1 N NaOH was added to each well and the absorption at 405 nm was determined using a 96 well plate reader. As the absorption is directly proportional to the number of living cells, the IC50 values were calculated and the reported values represent of the average of 4-36 determinations (SD±10%).
# [2] = test system: vinblastine sensitive tumor cell lines (L1210 and HCT116); test: Cell growth inhibition, vinblastine-sensitive lines stated together; assay type: cell-based; details: L1210 and HCT116, range over both lines; read-out: IC50's against vinblastine-sensitive tumor cell lines
# Experimental: as §1, §2, §3
# [3] = test system: HCT116 (human colorectal carcinoma) cells; test: cells; assay type: cell-based; details: read-out: IC50, HCT116
# Experimental: as §1, §2, §3
# [4] = test system: HCT116/VM46 (a vinblastine-resistant strain of HCT116) cells; test: Cell growth inhibition assay, HCT116/VM46; assay type: cell-based, human; details: 72 hours incubation, phosphatase assay, Pgp-overexpressing resistant line
# Experimental: as §1, §2, §3
# [5] = test system: HCT116/VM46 (a vinblastine-resistant strain of HCT116) cells; details: previously reported (footnote a, Barker et al. 2013) or background art table; cited from earlier work
# [6] = test system: HCT116 (human colorectal carcinoma) cells; details: cited from earlier work; for less potent than vinblastine: cell growth inhibition, background art (Leggans 2012; Barker 2012); for IC50: previously reported (footnote a, Barker et al. 2013) or background art table
# [7] = 72 hours incubation, phosphatase assay
compound,measurement,setting,value
CC[C@]1(NC(=O)N2Cc3ccc(NC(C)=O)cc3C2)C[C@H]2CN(CCc3c([nH]c4ccccc34)[C@@](C(=O)OC)(c3cc4c(cc3OC)N(C)[C@H]3[C@@](O)(C(=O)OC)[C@H](OC(C)=O)[C@]5(CC)C=CCN6CC[C@]43[C@@H]65)C2)C1 [Compound 40],IC50,[1],0.47 nM
same,IC50,[2],0.47 to 0.5 nM
same,IC50,[3]; [7],0.5 nM
same,IC50,[4],9.4 nM
"CC[C@]1(N)C[C@H]2CN(CCc3c([nH]c4ccccc34)[C@@](C(=O)OC)(c3cc4c(cc3OC)N(C)[C@H]3[C@@](O)(C(=O)OC)[C@H](OC(C)=O)[C@]5(CC)C=CCN6CC[C@]43[C@@H]65)C2)C1 [Compound 6, 20′-aminovinblastine]",IC50,[5],> 10000 nM
same,less potent than vinblastine,[6],100 fold
same,IC50,[6],600 nM
CC[C@]1(NC(=O)N2CCCCCC2)C[C@H]2CN(CCc3c([nH]c4ccccc34)[C@@](C(=O)OC)(c3cc4c(cc3OC)N(C)[C@H]3[C@@](O)(C(=O)OC)[C@H](OC(C)=O)[C@]5(CC)C=CCN6CC[C@]43[C@@H]65)C2)C1 [Compound 24],IC50,[1],4.3 nM
same,IC50,[3]; [7],3.1 nM
same,IC50,[4],35 nM
"CC[C@]1(NC(=O)N2CCC(N(C)C)C2)C[C@H]2CN(CCc3c([nH]c4ccccc34)[C@@](C(=O)OC)(c3cc4c(cc3OC)N(C)[C@H]3[C@@](O)(C(=O)OC)[C@H](OC(C)=O)[C@]5(CC)C=CCN6CC[C@]43[C@@H]65)C2)C1 (single isomer, unassigned) [Compound 11]",IC50,[1],14 nM
same,IC50,[3]; [7],6.2 nM
same,IC50,[4],390 nM
CC[C@]1(N=[N+]=[N-])C[C@H]2CN(CCc3c([nH]c4ccccc34)[C@@](C(=O)OC)(c3cc4c(cc3OC)N(C)[C@H]3[C@@](O)(C(=O)OC)[C@H](OC(C)=O)[C@]5(CC)C=CCN6CC[C@]43[C@@H]65)C2)C1 [Compound 5],IC50,[5],5500 nM
same,less potent than vinblastine,[6],100 fold
same,IC50,[6],690 nM
CCC(=O)Nc1ccc2c(c1)CN(C(=O)N[C@@]1(CC)C[C@H]3CN(CCc4c([nH]c5ccccc45)[C@@](C(=O)OC)(c4cc5c(cc4OC)N(C)[C@H]4[C@@](O)(C(=O)OC)[C@H](OC(C)=O)[C@]6(CC)C=CCN7CC[C@]54[C@@H]76)C3)C1)C2 [Compound 41],IC50,[1],0.46 nM
same,IC50,[3]; [7],0.54 nM
same,IC50,[4],7.7 nM
CC[C@]1(NC(=O)N2Cc3ccc(Cl)cc3C2)C[C@H]2CN(CCc3c([nH]c4ccccc34)[C@@](C(=O)OC)(c3cc4c(cc3OC)N(C)[C@H]3[C@@](O)(C(=O)OC)[C@H](OC(C)=O)[C@]5(CC)C=CCN6CC[C@]43[C@@H]65)C2)C1 [Compound 32],IC50,[1],0.5 nM
same,IC50,[3]; [7],0.55 nM
same,IC50,[4],5.7 nM
"CC[C@@H]1C[C@H]2CN(CCc3c([nH]c4ccccc34)[C@@](C(=O)OC)(c3cc4c(cc3OC)N(C)[C@H]3[C@@](O)(C(=O)OC)[C@H](OC(C)=O)[C@]5(CC)C=CCN6CC[C@]43[C@@H]65)C2)C1 [Compound 4, reference compound]",IC50,[5],600 nM
same,IC50,[6],60 nM
"CC[C@]1(NC(N)=O)C[C@H]2CN(CCc3c([nH]c4ccccc34)[C@@](C(=O)OC)(c3cc4c(cc3OC)N(C)[C@H]3[C@@](O)(C(=O)OC)[C@H](OC(C)=O)[C@]5(CC)C=CCN6CC[C@]43[C@@H]65)C2)C1 [Compound 7, reference compound]",IC50,[5],4400 nM
same,IC50,[6],7.5 nM
CC[C@]1(NC(=O)N2Cc3ccc(N(C)C)cc3C2)C[C@H]2CN(CCc3c([nH]c4ccccc34)[C@@](C(=O)OC)(c3cc4c(cc3OC)N(C)[C@H]3[C@@](O)(C(=O)OC)[C@H](OC(C)=O)[C@]5(CC)C=CCN6CC[C@]43[C@@H]65)C2)C1 [Compound 38],IC50,[1],0.5 nM
same,IC50,[3]; [7],0.62 nM
same,IC50,[4],3.9 nM
"CC[C@]1(NC(=O)N2CCC(F)C2)C[C@H]2CN(CCc3c([nH]c4ccccc34)[C@@](C(=O)OC)(c3cc4c(cc3OC)N(C)[C@H]3[C@@](O)(C(=O)OC)[C@H](OC(C)=O)[C@]5(CC)C=CCN6CC[C@]43[C@@H]65)C2)C1 (single isomer, unassigned) [Compound 17]",IC50,[1],0.62 nM
same,IC50,[3]; [7],0.64 nM
same,IC50,[4],7.2 nM
"CC[C@]1(NC(=O)N2CCC(N(C)C)C2)C[C@H]2CN(CCc3c([nH]c4ccccc34)[C@@](C(=O)OC)(c3cc4c(cc3OC)N(C)[C@H]3[C@@](O)(C(=O)OC)[C@H](OC(C)=O)[C@]5(CC)C=CCN6CC[C@]43[C@@H]65)C2)C1 (single isomer, unassigned) [Compound 10]",IC50,[1],20 nM
same,IC50,[3]; [7],20 nM
same,IC50,[4],500 nM
CC[C@]1(NC(=O)N2C3CCC2CC3)C[C@H]2CN(CCc3c([nH]c4ccccc34)[C@@](C(=O)OC)(c3cc4c(cc3OC)N(C)[C@H]3[C@@](O)(C(=O)OC)[C@H](OC(C)=O)[C@]5(CC)C=CCN6CC[C@]43[C@@H]65)C2)C1 [Compound 26],IC50,[1],40 nM
same,IC50,[3]; [7],20 nM
same,IC50,[4],250 nM
CC[C@]1(NC(=O)N2Cc3ccc(NC(=O)c4ccccc4)cc3C2)C[C@H]2CN(CCc3c([nH]c4ccccc34)[C@@](C(=O)OC)(c3cc4c(cc3OC)N(C)[C@H]3[C@@](O)(C(=O)OC)[C@H](OC(C)=O)[C@]5(CC)C=CCN6CC[C@]43[C@@H]65)C2)C1 [Compound 50],IC50,[1],0.54 nM
same,IC50,[2],0.5 to 0.6 nM
same,IC50,[3]; [7],0.62 nM
same,IC50,[4],13 nM
CCC1(NC(=O)N2Cc3cc(OC)c(OC)cc3C2)C[C@H]2CN(CCc3c([nH]c4ccccc34)[C@@](C(=O)OC)(c3cc4c(cc3OC)N(C)[C@H]3C(O)(C(=O)OC)[C@H](OC(C)=O)[C@]5(CC)C=CCN6CC[C@]43[C@@H]65)C2)C1 (stereo partly drawn) [Compound 54],IC50,"[1]; Mus musculus, L1210",0.42 nM
same,IC50,"[3]; Homo sapiens, HCT-116, 72 h",0.45 nM
same,IC50,"[4]; Homo sapiens, HCT-116/VM46",5.2 nM
CC[C@]1(NC(=O)N2Cc3ccc(NC(=O)C=C(C)C)cc3C2)C[C@H]2CN(CCc3c([nH]c4ccccc34)[C@@](C(=O)OC)(c3cc4c(cc3OC)N(C)[C@H]3[C@@](O)(C(=O)OC)[C@H](OC(C)=O)[C@]5(CC)C=CCN6CC[C@]43[C@@H]65)C2)C1 [Compound 48],IC50,[1],0.43 nM
same,IC50,[3]; [7],0.47 nM
same,IC50,[4],7.4 nM
"CC[C@]1(NC(=O)N2CCC(C#N)C2)C[C@H]2CN(CCc3c([nH]c4ccccc34)[C@@](C(=O)OC)(c3cc4c(cc3OC)N(C)[C@H]3[C@@](O)(C(=O)OC)[C@H](OC(C)=O)[C@]5(CC)C=CCN6CC[C@]43[C@@H]65)C2)C1 (single isomer, unassigned) [Compound 20]",IC50,[1],3.7 nM
same,IC50,[3]; [7],1.5 nM
same,IC50,[4],60 nM
CC[C@]1(NC(=O)N2Cc3ccc(NC(=O)c4ccc(-c5ccccc5)cc4)cc3C2)C[C@H]2CN(CCc3c([nH]c4ccccc34)[C@@](C(=O)OC)(c3cc4c(cc3OC)N(C)[C@H]3[C@@](O)(C(=O)OC)[C@H](OC(C)=O)[C@]5(CC)C=CCN6CC[C@]43[C@@H]65)C2)C1 [Compound 51],IC50,[1],5.9 nM
same,IC50,[3]; [7],6.3 nM
same,IC50,[4],75 nM
CC[C@]1(NC(=O)N2CC=CC2)C[C@H]2CN(CCc3c([nH]c4ccccc34)[C@@](C(=O)OC)(c3cc4c(cc3OC)N(C)[C@H]3[C@@](O)(C(=O)OC)[C@H](OC(C)=O)[C@]5(CC)C=CCN6CC[C@]43[C@@H]65)C2)C1 [Compound 22],IC50,[1],0.53 nM
same,IC50,[3]; [7],0.5 nM
same,IC50,[4],5.7 nM
